Reference: patent US9439430B2, “Method of controlling resistant harmful plants” (priority 2012, dated 2016)

The molecules below were run on AMATA (assay: Greenhouse test, pre-emergence (PE) soil application). Conditions: group (B) compound alone, 20 g of AS/ha.
Type: in vivo, Amaranthus rudis
Source text: The 1:1 mixture of the two soil types was used specifically for cultivating small-seeded dicotyledonous weed since the standard field soil on its own tends to silt up, which may have an adverse effect on the emergence of small-seeded weeds. The resistances mentioned in the tables were confirmed beforehand in standard monitoring experiments. Nevertheless, the origins examined may have additional, hitherto unconfirmed resistances to various mechanisms of action.
The pots were then cultivated in a greenhouse (12-16 h light, temperature day 20-22° C., night 15-18° C.) until the time of application. The pots were treated at various BBCH stages of the seeds/plants on a laboratory track sprayer with spray liquors comprising the compositions according to the invention, mixtures of the prior art or the individual components. Application of the active compounds or active compound combinations and wetting agents formulated as WG, WP, EC or otherwise was carried out at the appropriate growth stages of the plants. The amount of water used for spray application was 100-600 l/ha. After the treatment, the plants were returned to the greenhouses and fertilized and watered as required. The pots were cultivated in a greenhouse (12-16 h light, temperature day 20-22° C., night 15-18° C.).
3 weeks after the application, the foliar effect was evaluated on a scale of 0-100%:
0%=no noticeable effect compared to untreated plants
100%=full effect compared to untreated plants
The following abbreviations were used: • BBCH the BBCH code provides information about the morphological development stage of a plant. Officially, the abbreviation denotes the Biologische Bundesanstalt, Bundessortenamt and CHemische Industrie [Federal Biological Institute for Agriculture and Forestry, Federal Office for Crop Plant Varieties, Chemical Industry]. The range of BBCH 00-10 denotes the germination stages of the seeds until surface penetration. […]
For COc1cc(OC)nc(NC(=O)NS(=O)(=O)c2ncccc2C(F)(F)F)n1 [(B1), flazasulfuron], the “effect on AMATA resistant - group B (TSR), C1 (TSR)” value (“effect on AMATA resistant - group B” below) was 60. In the case of COc1cc(OC)nc(NC(=O)NS(=O)(=O)c2cc(NC=O)ccc2C(=O)N(C)C)n1 [(B2), foramsulfuron], the “effect on AMATA resistant - group B” value is reported as 40. In the case of CCS(=O)(=O)c1cccnc1S(=O)(=O)NC(=O)Nc1nc(OC)cc(OC)n1 [(B3), rimsulfuron], the “effect on AMATA resistant - group B” value is reported as 60.
